Reference: US10159640B2, “Prebiotic oral care compositions containing amino acids” (COLGATE-PALMOLIVE COMPANY, priority 2013, dated 2018)

How the values were obtained:
Assay in all cases: Metabolic activity, Biolog phenotype microarray
Assay type in all cases: cell-based
Conditions in all cases: control without dipeptide = 1
Actinomyces naeslundii = tested on: Actinomyces naeslundii
Outline: (§1)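 Each species, grown 48 h anaerobically on blood agar, was suspended in IF-0 fluid with tetrazolium Redox Dye D, succinate and ferric citrate, then dispensed onto dipeptide-preloaded plates. Incubated anaerobically at 37° C; OD 492 nm read at 24 and 48 h versus no-dipeptide controls; mean of three biological replicates.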

Actinomyces viscosus = tested on: Actinomyces viscosus
Outline: as §1

[1] = tested on: Aggregatibacter actinomycetemcomitans
Outline: as §1

Capnocytophaga sputigena = tested on: Capnocytophaga sputigena
Outline: as §1

Fusobacterium nucleatum = tested on: Fusobacterium nucleatum
Outline: as §1

Porphyromonas gingivalis = tested on: Porphyromonas gingivalis
Outline: as §1

Prevotella intermedia = tested on: Prevotella intermedia
Outline: as §1

Streptococcus gordonii = tested on: Streptococcus gordonii
Outline: as §1

Streptococcus mitis = tested on: Streptococcus mitis
Outline: as §1

Streptococcus mutans = tested on: Streptococcus mutans
Outline: as §1

Streptococcus salivarius = tested on: Streptococcus salivarius
Outline: as §1

Streptococcus sanguinis = tested on: Streptococcus sanguinis
Outline: as §1

Streptococcus sobrinus = tested on: Streptococcus sobrinus
Outline: as §1

Tannerella forsythia = tested on: Tannerella forsythia
Outline: as §1

Veillonella parvula = tested on: Veillonella parvula
Outline: as §1

Substance: Phe-Glu
- metabolic activity: OD 492 nm divided by OD of control (Actinomyces naeslundii; 24 hrs): 0.9642
- metabolic activity: OD 492 nm divided by OD of control (Actinomyces naeslundii; 48 hrs): 0.9466
- metabolic activity: OD 492 nm divided by OD of control (Actinomyces viscosus; 24 hrs): 1.3824
- metabolic activity: OD 492 nm divided by OD of control (Actinomyces viscosus; 48 hrs): 2.1224
- metabolic activity: OD 492 nm divided by OD of control ([1]; 24 hrs): 0.9204
- metabolic activity: OD 492 nm divided by OD of control ([1]; 48 hrs): 0.9345
- metabolic activity: OD 492 nm divided by OD of control (Capnocytophaga sputigena; 24 hrs): 2.1428
- metabolic activity: OD 492 nm divided by OD of control (Capnocytophaga sputigena; 48 hrs): 1.7139
- metabolic activity: OD 492 nm divided by OD of control (Fusobacterium nucleatum; 24 hrs): 0.9451
- metabolic activity: OD 492 nm divided by OD of control (Fusobacterium nucleatum; 48 hrs): 0.9112
- metabolic activity: OD 492 nm divided by OD of control (Porphyromonas gingivalis; 24 hrs): 0.9806
- metabolic activity: OD 492 nm divided by OD of control (Porphyromonas gingivalis; 48 hrs): 0.9029
- metabolic activity: OD 492 nm divided by OD of control (Prevotella intermedia; 24 hrs): 1.0519
- metabolic activity: OD 492 nm divided by OD of control (Prevotella intermedia; 48 hrs): 0.9562
- metabolic activity: OD 492 nm divided by OD of control (Streptococcus gordonii; 24 hrs): 0.8472
- metabolic activity: OD 492 nm divided by OD of control (Streptococcus gordonii; 48 hrs): 0.9890
- metabolic activity: OD 492 nm divided by OD of control (Streptococcus mitis; 24 hrs): 1.0644
- metabolic activity: OD 492 nm divided by OD of control (Streptococcus mitis; 48 hrs): 1.1176
- metabolic activity: OD 492 nm divided by OD of control (Streptococcus mutans; 24 hrs): 1.0352
- metabolic activity: OD 492 nm divided by OD of control (Streptococcus mutans; 48 hrs): 0.9816
- metabolic activity: OD 492 nm divided by OD of control (Streptococcus salivarius; 24 hrs): 1.0411
- metabolic activity: OD 492 nm divided by OD of control (Streptococcus salivarius; 48 hrs): 0.9959
- metabolic activity: OD 492 nm divided by OD of control (Streptococcus sanguinis; 24 hrs): 1.0204
- metabolic activity: OD 492 nm divided by OD of control (Streptococcus sanguinis; 48 hrs): 1.0208
- metabolic activity: OD 492 nm divided by OD of control (Streptococcus sobrinus; 24 hrs): 1.0354
- metabolic activity: OD 492 nm divided by OD of control (Streptococcus sobrinus; 48 hrs): 1.0539
- metabolic activity: OD 492 nm divided by OD of control (Tannerella forsythia; 24 hrs): 1.0452
- metabolic activity: OD 492 nm divided by OD of control (Tannerella forsythia; 48 hrs): 1.0015
- metabolic activity: OD 492 nm divided by OD of control (Veillonella parvula; 24 hrs): 0.8043
- metabolic activity: OD 492 nm divided by OD of control (Veillonella parvula; 48 hrs): 0.7552

Substance: Met-Pro
- metabolic activity: OD 492 nm divided by OD of control (Actinomyces naeslundii; 24 hrs): 1.0381
- metabolic activity: OD 492 nm divided by OD of control (Actinomyces naeslundii; 48 hrs): 1.0427
- metabolic activity: OD 492 nm divided by OD of control (Actinomyces viscosus; 24 hrs): 1.5865
- metabolic activity: OD 492 nm divided by OD of control (Actinomyces viscosus; 48 hrs): 2.0588
- metabolic activity: OD 492 nm divided by OD of control ([1]; 24 hrs): 0.9162
- metabolic activity: OD 492 nm divided by OD of control ([1]; 48 hrs): 0.8616
- metabolic activity: OD 492 nm divided by OD of control (Capnocytophaga sputigena; 24 hrs): 2.5077
- metabolic activity: OD 492 nm divided by OD of control (Capnocytophaga sputigena; 48 hrs): 1.8376
- metabolic activity: OD 492 nm divided by OD of control (Fusobacterium nucleatum; 24 hrs): 0.8752
- metabolic activity: OD 492 nm divided by OD of control (Fusobacterium nucleatum; 48 hrs): 0.8113
- metabolic activity: OD 492 nm divided by OD of control (Porphyromonas gingivalis; 24 hrs): 1.0029
- metabolic activity: OD 492 nm divided by OD of control (Porphyromonas gingivalis; 48 hrs): 1.0774
- metabolic activity: OD 492 nm divided by OD of control (Prevotella intermedia; 24 hrs): 0.9704
- metabolic activity: OD 492 nm divided by OD of control (Prevotella intermedia; 48 hrs): 0.9393
- metabolic activity: OD 492 nm divided by OD of control (Streptococcus gordonii; 24 hrs): 1.0870
- metabolic activity: OD 492 nm divided by OD of control (Streptococcus gordonii; 48 hrs): 1.0447
- metabolic activity: OD 492 nm divided by OD of control (Streptococcus mitis; 24 hrs): 1.0020
- metabolic activity: OD 492 nm divided by OD of control (Streptococcus mitis; 48 hrs): 0.9214
- metabolic activity: OD 492 nm divided by OD of control (Streptococcus mutans; 24 hrs): 0.9563
- metabolic activity: OD 492 nm divided by OD of control (Streptococcus mutans; 48 hrs): 0.9242
- metabolic activity: OD 492 nm divided by OD of control (Streptococcus salivarius; 24 hrs): 0.9990
- metabolic activity: OD 492 nm divided by OD of control (Streptococcus salivarius; 48 hrs): 0.9500
- metabolic activity: OD 492 nm divided by OD of control (Streptococcus sanguinis; 24 hrs): 0.8599
- metabolic activity: OD 492 nm divided by OD of control (Streptococcus sanguinis; 48 hrs): 0.8295
- metabolic activity: OD 492 nm divided by OD of control (Streptococcus sobrinus; 24 hrs): 1.0338
- metabolic activity: OD 492 nm divided by OD of control (Streptococcus sobrinus; 48 hrs): 1.0538
- metabolic activity: OD 492 nm divided by OD of control (Tannerella forsythia; 24 hrs): 0.9040
- metabolic activity: OD 492 nm divided by OD of control (Tannerella forsythia; 48 hrs): 0.9403
- metabolic activity: OD 492 nm divided by OD of control (Veillonella parvula; 24 hrs): 0.7714
- metabolic activity: OD 492 nm divided by OD of control (Veillonella parvula; 48 hrs): 0.6345
